Test results: article PMC10916382, “Repurposing screen identifies novel candidates for broad-spectrum coronavirus antivirals and druggable host targets” (Antimicrobial Agents and Chemotherapy, 2024)
Like-named read-outs stand apart in the source and are kept apart here.

Experiments:
[1] = test system: HCoV-229E; parameters: method as in PMID 34446714; conditions: Huh-7.5 cells; cited from earlier work
[2] = test system: SARS-CoV-2; conditions: Calu-3 and Vero cells; cited from earlier work
[3] = test system: SARS-CoV-2; format: cell-based; conditions: dose range 0.15 µM to 10 µM, viral genome copies in apical washes and cellular lysates
[4] = test system: primary human airway epithelial cells; conditions: dose range 0.15 µM to 10 µM, cellular lysates
[5] = test system: SARS-CoV-2; conditions: Calu-3 cells; for total cell numbers / reduction of infected cell numbers: 5 µM, relative to DMSO; for total cell numbers: DAPI; for reduction of infected cell numbers: N protein immunofluorescence; for outcome against confirmation criteria of the SARS-CoV-2 counter-screen (<50% infected cell, >75% total cells): single dose of 5 µM
[6] = test system: SARS-CoV-2; conditions: for SI (CC50/IC50): CC50 from LDH assay / IC50 from qRT-PCR
[7] = test system: HCoV-229E; assay: microbe, parasite or virus in culture; format: cell-based, Homo sapiens sapiens
[8] = test system: Huh-7.5/F-Luc cells; conditions: for CC50 (µM): Huh-7.5 cells, dose series, maximum tested dose 5 µM; for % cell viability at max. dose [5 µM]: at max. dose 5 µM
[9] = test system: Calu-3 cells; conditions: LDH release, non-infected Calu-3 cells, 48 hours of drug treatment
[10] = in vitro; conditions: human
[11] = test system: SARS-CoV-2; assay: microbe, parasite or virus in culture; conditions: Severe acute respiratory syndrome coronavirus 2, Calu-3, 48 h
[12] = test system: HCoV-229E; assay: Twelve-step dose titration against HCoV-229E infection on Huh-7.5/F-Luc/Cas9 cells; format: cell-based, Homo sapiens sapiens; conditions: n = 3
[13] = in vitro; conditions: human; remark: listed apart in the source
[14] = test system: Huh-7.5/F-Luc/Cas9 cells; conditions: twelve-step 1:3 dilutions, n = 3
[15] = in vitro; conditions: Anti-SARS-CoV-2 screening on Calu-3 cells: viability [% of control], Calu-3 cells
[16] = Human coronavirus 229E, Huh7.5, twelve-step 1:3 dilutions

SMILES	antiviral activity against SARS-CoV-2 in HAE cells [3]	cytotoxicity in HAE cells, GAPDH mRNA [4]	total cell numbers [5] [%]	reduction of infected cell numbers [5]	Anti-SARS-CoV-2 screening on Calu-3 cells: intracellular SARS-CoV-2 infection measured via immunofluorescence imaging [% of control] [5]	SI (CC50/IC50) ([6]; Calu-3 cells)	CC50 (µM) [8]	CC50 [10] [µM]	IC50 [11] [µM]	IC90 [11] [µM]	other results
Cc1ccccc1N=Nc1ccc(NC(=O)c2ccnn2C)c(C)c1 [CH223191]											effect on HCoV-229E infection [1]: decreased HCoV-229E and SARS-CoV-2 infection; effect on SARS-CoV-2 infection [2]: decreased HCoV-229E and SARS-CoV-2 infection
C#CCOc1ccc2c(c1)c(-c1ccc(C(C)C)cc1)nc(=O)n2Cc1ccc(Br)cc1 [AXT-914, reference compound]	dose dependently inhibited SARS-CoV-2 infection	without reducing GAPDH mRNA levels	≥ 75	more than 50%	20.74 % of control	> 7.08	greater than maximum tested dose				Anti-SARS-CoV-2 screening on Calu-3 cells: viability [% of control] [5]: 76.99 % of control; IC50 [6]: 5.65 µM; IC90 [6]: 21.8 µM; IC50 ([7]; HCoV 229E infection, dose series, max. dose 5 µM, read-out: IC50): 0.05 µM; % cell viability at max. dose [5 µM] [8]: 127.46%; CC50 [9]: > 40 µM
CC1(C)CC[C@]2(NC(=O)C(C)(F)F)CC[C@]3(C)[C@H](C(=O)C=C4[C@@]5(C)C=C(C#N)C(=O)C(C)(C)[C@@H]5CC[C@]43C)[C@@H]2C1 [Omaveloxolone]	inhibited SARS-CoV-2 infection at 1.25 µM and 2.5 µM	maintaining high cell viability				> 8.66		> 1.25	0.14	2.41	outcome against confirmation criteria of the SARS-CoV-2 counter-screen (<50% infected cell, >75% total cells) [5]: did not meet the inclusion criteria; IC50 ([7]; Human coronavirus 229E, Huh7.5, 48 h, read-out: IC50 against HCoV-229E): 0.078 µM
C=C(CC[C@]12O[C@H](C(=O)O)[C@@](O)(C(=O)O)[C@](C(=O)O)(O1)[C@H](OC(=O)/C=C/[C@@H](C)C[C@@H](C)CC)[C@H]2O)[C@@H](OC(C)=O)[C@H](C)Cc1ccccc1 [Zaragozic Acid A, Zaragozic acid A]											IC50 [12, 16]: 1.93 µM; CC50 [13]: > 100 µM
F/C(COc1ccc2c(c1)[nH]c1ccccc12)=C1/CN2CCC1CC2 [YM-53601]											IC50 ([12]; twelve-step 1:3 dilutions): 1.61 µM; CC50 [14]: 28.1 µM
CC/C(=C(/C#N)c1ccc(OCCN(CC)CC)cc1)c1ccc(Cl)cc1 [P-3622, Z-3-(4-chlorophenyl)-2-(4-(2-(diethylamino)ethoxy)phenyl)pent-2-enenitrile]	limited antiviral activity	well tolerated			97.91 % of control	2.09	greater than maximum tested dose	19.5	9.35	23.4	IC50 [12, 16]: 0.359 µM; viability [15]: 97.7%; IC50 ([7]; Human coronavirus 229E, Huh7.5): 0.88 µM
Cc1cc(-c2nc3cc(F)ccc3s2)ccc1NC(=O)[C@@H](N)CCCCN [Phortress, reference compound]	dose dependently inhibited SARS-CoV-2 infection	without reducing GAPDH mRNA levels	≥ 75	more than 50%	46.05 % of control	1.49	greater than maximum tested dose				Anti-SARS-CoV-2 screening on Calu-3 cells: viability [% of control] [5]: 106.32 % of control; IC90 ([6]; Calu-3 cells, viral genome copies in supernatant 48 hours post-infection): 164 µM; IC50 ([6]; Calu-3 cells, viral genome copies in supernatant 48 hours post-infection, n = 3): 13.3 µM; IC50 ([7]; Huh-7.5/F-Luc cells, 8-step dose series, 48 hours at 33°C, read-out: IC50 against HCoV-229E): 0.23 µM; % cell viability at max. dose [5 µM] [8]: 252.77%; CC50 [9]: 19.9 µM
CN1CC[C@H](c2c(O)cc(O)c3c(=O)cc(-c4ccccc4Cl)oc23)[C@H](O)C1 [Flavopiridol]	the reduction in viral genome copies could not be separated from an increase in cytotoxicity		≥ 75	more than 50%		2.21		0.46	0.21	0.52	outcome against confirmation criteria of the SARS-CoV-2 counter-screen (<50% infected cell, >75% total cells) [5]: qualified as a hit in both imaging- and qRT-PCR-based assays
